In patent US20060189686A1, “Use of a combination of substances to prevent biofouling organisms” (priority 2005, published 2006):

Assays:
Barnacle = test: Cyprid settling rate assay, single compounds and combinations (Example 2); format: in vivo; conditions: single substance
Experimental: (§1) Settling experiments were performed in order to evaluate the substances effect on settling rate of cyprid larvae. The barnacle cyprid larvae are reared in the laboratory. Approximately 20 cyprids were incubated in seawater in plastic hydrophobic Petri-dishes. Substances subjected for testing were added in different concentration and compared with controls. After one week the amount of settled, frees-swimming and dead larvae in the Petri dishes were counted.
(§2) Catemine 3 is combined with an effective anti-algae compound according to the invention, such as dichlofluanid (table 3), SeaNine™ (table 4), Irgarol™ (table 5) and Diuron™ (table 6). All the different brands are tested in combination with Catemine 3 for efficacy against both barnacles and algae with the two compounds together or separately. The assays that are be used are the cyprid settling rate assay and the algae germination test.

Ulva = test: Algae spore germination test, Ulva; format: in vivo; conditions: single substance
Experimental: The efficacy of algicides is usually tested by a spore germination test. Algae are collected from the field and grown in the laboratory. […] The water with test compound is then removed and culture medium is added. The spores are left to germinate under fluorescent lamps (50 μMm-2s-1 (PAR)), 16 h light, 8 h darkness, for 7 days in a culture medium, which was changed once a day. […]

Enteromorpha = test: Algae spore germination test, Enteromorpha; format: in vivo; conditions: single substance
Experimental: The efficacy of algicides is usually tested by a spore germination test. Algae are collected from the field and grown in the laboratory. After induced sporulation the spores are added to test vials, with the test compound dissolved in pasteurized deep sea water, where they are allowed to settle in darkness for a couple of hours (2-3 h) to give an even distribution of settled spores in the vials. The water with test compound is then removed and culture medium is added. The spores are left to germinate under fluorescent lamps (50 μMm-2s-1 (PAR)), 16 h light, 8 h darkness, for 7 days in a culture medium, which was changed once a day.
as §2

barnacle cyprid larvae = test: Settling experiments with barnacle cyprid larvae (Example 1); format: in vivo; conditions: for Dead (%) / Free swimming (%) / Settled (%): counted after one week
Experimental: Barnacle cyprid larvae were incubated in filtered sea water with and without the tested substance.
as §1

algae = conditions: target protein lacking in algae; reference (6); cited from earlier work

SMILES	Barnacle biofouling (% settlement) (Barnacle; 0.1 nM) [%]	Barnacle biofouling (% settlement) (Barnacle; 1 nM) [%]	Barnacle biofouling (% settlement) (Barnacle; 10 nM) [%]	Barnacle biofouling (% settlement) (Barnacle; 100 nM) [%]	Ulva biofouling (% survival) (Ulva; 0.1 nM) [%]	Ulva biofouling (% survival) (Ulva; 1 nM) [%]	Ulva biofouling (% survival) (Ulva; 10 nM) [%]	Ulva biofouling (% survival) (Ulva; 100 nM) [%]	Enteromorpha biofouling (% survival) (Enteromorpha; 0.1 nM) [%]	Enteromorpha biofouling (% survival) (Enteromorpha; 1 nM) [%]	Enteromorpha biofouling (% survival) (Enteromorpha; 10 nM) [%]	Enteromorpha biofouling (% survival) (Enteromorpha; 100 nM) [%]	Dead (%) (barnacle cyprid larvae; 100 pM in seawater)	Free swimming (%) (barnacle cyprid larvae; 100 pM in seawater)	Settled (%) (barnacle cyprid larvae; 100 pM in seawater)	Dead (%) (barnacle cyprid larvae; 1 nM in seawater)	Free swimming (%) (barnacle cyprid larvae; 1 nM in seawater)	Settled (%) (barnacle cyprid larvae; 1 nM in seawater)	Dead (%) (barnacle cyprid larvae; 10 nM in seawater)	Free swimming (%) (barnacle cyprid larvae; 10 nM in seawater)	other results
CCCCCCCCn1sc(Cl)c(Cl)c1=O [SeaNine, 4,5-dichloro-2-n-octyl-3(2H)-isothiazolone]	100	50	10	0	100	50	10	0													
CSc1nc(NC2CC2)nc(NC(C)(C)C)n1 [Irgarol, 2-methylthio-4-tert-butylamino-6-cyclopropylamino-s-triazine]	100	100	100	100					100	100	50	0									
CN(C)S(=O)(=O)N(SC(F)(Cl)Cl)c1ccccc1 [Dichlofluanid, N′-dimethyl-N-phenylsulphamide]																					Barnacle biofouling (% settlement) (Barnacle; 0.1 μg/ml): 100%; Barnacle biofouling (% settlement) (Barnacle; 1 μg/ml): 50%; Barnacle biofouling (% settlement) (Barnacle; 10 μg/ml): 25%; Barnacle biofouling (% settlement) (Barnacle; 100 μg/ml): 0%; Ulva biofouling (% survival) (Ulva; 0.1 μg/ml): 100%; Ulva biofouling (% survival) (Ulva; 1 μg/ml): 90%; Ulva biofouling (% survival) (Ulva; 10 μg/ml): 10%; Ulva biofouling (% survival) (Ulva; 100 μg/ml): 0%
NC1=N[C@]2(CCc3cccc(Cl)c3C2)CO1 [Catemine 3, (S)-spiro[(1-oxa-2-amino-3-azacyclopent-2-ene)-4,29-(89-chloro-19,29,39,49 tetrahydronaphthalene)]]	10	0	0	0	100	100	100	100	100	100	100	100	5	93	2	3	97	0	0	95	Dead (%) (barnacle cyprid larvae; 10 pM in seawater): 0%; Free swimming (%) (barnacle cyprid larvae; 10 pM in seawater): 96%; Settled (%) (barnacle cyprid larvae; 10 pM in seawater): 4%; Settled (%) (barnacle cyprid larvae; 10 nM in seawater): 3%; Dead (%) (barnacle cyprid larvae; 100 nM in seawater): 0%; Free swimming (%) (barnacle cyprid larvae; 100 nM in seawater): 100%; Settled (%) (barnacle cyprid larvae; 100 nM in seawater): 0%; Dead (%) (barnacle cyprid larvae; 1 μM in seawater): 0%; Free swimming (%) (barnacle cyprid larvae; 1 μM in seawater): 100%; Settled (%) (barnacle cyprid larvae; 1 μM in seawater): 0%; Dead (%) (barnacle cyprid larvae; 10 μM in seawater): 2%; Free swimming (%) (barnacle cyprid larvae; 10 μM in seawater): 98%; Settled (%) (barnacle cyprid larvae; 10 μM in seawater): 0%; Dead (%) (barnacle cyprid larvae; 100 μM in seawater): 100%; Free swimming (%) (barnacle cyprid larvae; 100 μM in seawater): 0%; Settled (%) (barnacle cyprid larvae; 100 μM in seawater): 0%; Decrease in concentration needed for settlement inhibition compared to Catemine 1 (barnacle cyprid larvae; compared to Catemine 1): 100-fold decrease in concentration needed for settlement inhibition.; Potency comparison of antisettling activity (barnacle cyprid larvae; comparison of Tables 1 and 2): more potent than Catemine 1
CN(C)C(=O)Nc1ccc(Cl)c(Cl)c1 [Diuron, 3-(3,4-dichlorophenyl)1,1-dimethylurea]																					Barnacle biofouling (% settlement) (Barnacle; 0.1 μM): 100%; Barnacle biofouling (% settlement) (Barnacle; 1 μM): 100%; Barnacle biofouling (% settlement) (Barnacle; 10 μM): 100%; Barnacle biofouling (% settlement) (Barnacle; 100 μM): 100%; Ulva biofouling (% survival) (Ulva; 0.1 μM): 100%; Ulva biofouling (% survival) (Ulva; 1 μM): 90%; Ulva biofouling (% survival) (Ulva; 10 μM): 50%; Ulva biofouling (% survival) (Ulva; 100 μM): 0%
Cc1cccc(C(C)c2c[nH]cn2)c1C (racemic) [Catemine 1, (+/−)-4-[1-(2,3-dimethylphenyl)ethyl]-1H-imidazole]													0	48	52	0	98	2	0	100	Settled (%) (barnacle cyprid larvae; 10 nM in seawater): 0%; Dead (%) (barnacle cyprid larvae; 100 nM in seawater): 0%; Free swimming (%) (barnacle cyprid larvae; 100 nM in seawater): 100%; Settled (%) (barnacle cyprid larvae; 100 nM in seawater): 0%; Dead (%) (barnacle cyprid larvae; 1 μM in seawater): 0%; Free swimming (%) (barnacle cyprid larvae; 1 μM in seawater): 100%; Settled (%) (barnacle cyprid larvae; 1 μM in seawater): 0%; Effect on algal growth (algae): no effect of algal growth
